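In this assay, cells in 96-well plates receive the compound at five concentrations for 48 hours. Endpoints are linearly interpolated between the surrounding concentrations. At the TGI there is no net growth.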
Key:
Experiment in all cases: DTP human tumour cell line panel, 48 h
IGROV1 ovarian = test system: IGROV1 ovarian
OVCAR-4 ovarian = test system: OVCAR-4 ovarian
UACC-257 melanoma = test system: UACC-257 melanoma
HOP-62 NSCLC = test system: HOP-62 NSCLC
SNB-75 CNS = test system: SNB-75 CNS
CCRF-CEM leukemia = test system: CCRF-CEM leukemia
MALME-3M melanoma = test system: MALME-3M melanoma
SF-295 CNS = test system: SF-295 CNS
OVCAR-8 ovarian = test system: OVCAR-8 ovarian
ACHN renal = test system: ACHN renal
SK-OV-3 ovarian = test system: SK-OV-3 ovarian
SF-268 CNS = test system: SF-268 CNS
LOX IMVI melanoma = test system: LOX IMVI melanoma
NCI-H522 lung = test system: NCI-H522 lung
RPMI-8226 leukemia = test system: RPMI-8226 leukemia
UACC-62 melanoma = test system: UACC-62 melanoma
SK-MEL-2 melanoma = test system: SK-MEL-2 melanoma
HL-60(TB) leukemia = test system: HL-60(TB) leukemia
OVCAR-3 ovarian = test system: OVCAR-3 ovarian
COLO 205 colon = test system: COLO 205 colon
BT-549 breast = test system: BT-549 breast
A549 NSCLC = test system: A549 NSCLC
SK-MEL-28 melanoma = test system: SK-MEL-28 melanoma
K-562 leukemia = test system: K-562 leukemia
SR leukemia = test system: SR leukemia
RXF 393 renal = test system: RXF 393 renal
CAKI-1 renal = test system: CAKI-1 renal
HCT-116 colon = test system: HCT-116 colon
HCT-15 colon = test system: HCT-15 colon
EKVX NSCLC = test system: EKVX NSCLC
SK-MEL-5 melanoma = test system: SK-MEL-5 melanoma
A498 renal = test system: A498 renal
U251 CNS = test system: U251 CNS
DU-145 prostate = test system: DU-145 prostate
786-0 renal = test system: 786-0 renal
T-47D breast = test system: T-47D breast
SW-620 colon = test system: SW-620 colon
M14 melanoma = test system: M14 melanoma
MDA-MB-435 = test system: MDA-MB-435
HS 578T breast = test system: HS 578T breast
HT29 colon = test system: HT29 colon
HOP-92 NSCLC = test system: HOP-92 NSCLC
KM12 colon = test system: KM12 colon
OVCAR-5 ovarian = test system: OVCAR-5 ovarian
NCI/ADR-RES ovarian = test system: NCI/ADR-RES ovarian
NCI-H226 lung = test system: NCI-H226 lung
SNB-19 CNS = test system: SNB-19 CNS
UO-31 renal = test system: UO-31 renal
SN12C renal = test system: SN12C renal
NCI-H23 lung = test system: NCI-H23 lung
MDA-N = test system: MDA-N
TK-10 renal = test system: TK-10 renal
PC-3 prostate = test system: PC-3 prostate
MDA-MB-231 breast = test system: MDA-MB-231 breast
MOLT-4 leukemia = test system: MOLT-4 leukemia
HCC-2998 colon = test system: HCC-2998 colon
SF-539 CNS = test system: SF-539 CNS
NCI-H460 lung = test system: NCI-H460 lung
MCF7 breast = test system: MCF7 breast

Question: `O=S(=O)(O)c1ccc2c(N=Nc3cccc4ccccc34)c(O)ccc2c1` was tested. Which TGI (IGROV1 ovarian) did it give?
Answer: > 100 µM

Question: What about the TGI (OVCAR-4 ovarian) of the same molecule?
Answer: > 100 µM

Question: What about the TGI (UACC-257 melanoma) of the same molecule?
Answer: > 100 µM

Question: And the TGI (HOP-62 NSCLC)?
Answer: > 100 µM

Question: And the TGI (SNB-75 CNS)?
Answer: > 100 µM

Question: What about the TGI (CCRF-CEM leukemia) of the same molecule?
Answer: > 100 µM

Question: What about the TGI (MALME-3M melanoma) of the same molecule?
Answer: > 100 µM

Question: What about the TGI (SF-295 CNS) of the same molecule?
Answer: > 100 µM

Question: And the TGI (OVCAR-8 ovarian)?
Answer: > 100 µM

Question: What about the TGI (ACHN renal) of the same molecule?
Answer: > 100 µM

Question: What about the TGI (SK-OV-3 ovarian) of the same molecule?
Answer: > 100 µM

Question: What about the TGI (SF-268 CNS) of the same molecule?
Answer: > 100 µM

Question: What about the TGI (LOX IMVI melanoma) of the same molecule?
Answer: > 100 µM

Question: And the TGI (NCI-H522 lung)?
Answer: > 100 µM

Question: And the TGI (RPMI-8226 leukemia)?
Answer: > 100 µM

Question: What about the TGI (UACC-62 melanoma) of the same molecule?
Answer: > 100 µM

Question: And the TGI (SK-MEL-2 melanoma)?
Answer: > 100 µM

Question: And the TGI (HL-60(TB) leukemia)?
Answer: > 100 µM

Question: And the TGI (OVCAR-3 ovarian)?
Answer: > 100 µM

Question: And the TGI (COLO 205 colon)?
Answer: > 100 µM

Question: What about the TGI (BT-549 breast) of the same molecule?
Answer: > 100 µM

Question: What about the TGI (A549 NSCLC) of the same molecule?
Answer: > 100 µM

Question: And the TGI (SK-MEL-28 melanoma)?
Answer: > 100 µM

Question: What about the TGI (K-562 leukemia) of the same molecule?
Answer: > 100 µM

Question: What about the TGI (SR leukemia) of the same molecule?
Answer: > 100 µM

Question: And the TGI (RXF 393 renal)?
Answer: > 100 µM

Question: And the TGI (CAKI-1 renal)?
Answer: > 100 µM

Question: And the TGI (HCT-116 colon)?
Answer: > 100 µM

Question: And the TGI (HCT-15 colon)?
Answer: > 100 µM

Question: And the TGI (EKVX NSCLC)?
Answer: > 100 µM

Question: And the TGI (SK-MEL-5 melanoma)?
Answer: > 100 µM

Question: What about the TGI (A498 renal) of the same molecule?
Answer: > 100 µM

Question: And the TGI (U251 CNS)?
Answer: > 100 µM

Question: And the TGI (DU-145 prostate)?
Answer: > 100 µM

Question: And the TGI (786-0 renal)?
Answer: > 100 µM

Question: What about the TGI (T-47D breast) of the same molecule?
Answer: > 100 µM

Question: And the TGI (SW-620 colon)?
Answer: > 100 µM

Question: And the TGI (M14 melanoma)?
Answer: > 100 µM

Question: And the TGI (MDA-MB-435)?
Answer: > 100 µM

Question: What about the TGI (HS 578T breast) of the same molecule?
Answer: > 100 µM

Question: What about the TGI (HT29 colon) of the same molecule?
Answer: > 100 µM

Question: And the TGI (HOP-92 NSCLC)?
Answer: > 100 µM

Question: And the TGI (KM12 colon)?
Answer: > 100 µM

Question: And the TGI (OVCAR-5 ovarian)?
Answer: > 100 µM

Question: What about the TGI (NCI/ADR-RES ovarian) of the same molecule?
Answer: > 100 µM

Question: What about the TGI (NCI-H226 lung) of the same molecule?
Answer: > 100 µM

Question: And the TGI (SNB-19 CNS)?
Answer: > 100 µM

Question: And the TGI (UO-31 renal)?
Answer: > 100 µM

Question: And the TGI (SN12C renal)?
Answer: > 100 µM

Question: And the TGI (NCI-H23 lung)?
Answer: > 100 µM

Question: And the TGI (MDA-N)?
Answer: > 100 µM

Question: And the TGI (TK-10 renal)?
Answer: > 100 µM

Question: What about the TGI (PC-3 prostate) of the same molecule?
Answer: > 100 µM

Question: What about the TGI (MDA-MB-231 breast) of the same molecule?
Answer: > 100 µM

Question: What about the TGI (MOLT-4 leukemia) of the same molecule?
Answer: > 100 µM

Question: Which TGI (IGROV1 ovarian) does the source give for `O=C(Nc1ccccc1)c1cc2ccccc2c(N=Nc2cccc([N+](=O)[O-])c2)c1O` here?
Answer: > 100 µM

Question: What about the TGI (OVCAR-4 ovarian) of the same molecule?
Answer: > 100 µM

Question: And the TGI (HCC-2998 colon)?
Answer: > 100 µM

Question: What about the TGI (UACC-257 melanoma) of the same molecule?
Answer: > 100 µM

Question: What about the TGI (HOP-62 NSCLC) of the same molecule?
Answer: > 100 µM

Question: And the TGI (SNB-75 CNS)?
Answer: > 100 µM

Question: What about the TGI (CCRF-CEM leukemia) of the same molecule?
Answer: > 100 µM

Question: And the TGI (MALME-3M melanoma)?
Answer: > 100 µM

Question: And the TGI (SF-295 CNS)?
Answer: > 100 µM

Question: What about the TGI (OVCAR-8 ovarian) of the same molecule?
Answer: > 100 µM

Question: And the TGI (ACHN renal)?
Answer: > 100 µM

Question: What about the TGI (SK-OV-3 ovarian) of the same molecule?
Answer: > 100 µM

Question: And the TGI (SF-268 CNS)?
Answer: > 100 µM

Question: What about the TGI (NCI-H522 lung) of the same molecule?
Answer: > 100 µM

Question: What about the TGI (UACC-62 melanoma) of the same molecule?
Answer: > 100 µM

Question: What about the TGI (SK-MEL-2 melanoma) of the same molecule?
Answer: > 100 µM

Question: What about the TGI (OVCAR-3 ovarian) of the same molecule?
Answer: > 100 µM

Question: What about the TGI (COLO 205 colon) of the same molecule?
Answer: > 100 µM

Question: And the TGI (BT-549 breast)?
Answer: > 100 µM

Question: And the TGI (A549 NSCLC)?
Answer: > 100 µM

Question: And the TGI (SK-MEL-28 melanoma)?
Answer: > 100 µM

Question: What about the TGI (K-562 leukemia) of the same molecule?
Answer: > 100 µM

Question: And the TGI (SR leukemia)?
Answer: > 100 µM

Question: What about the TGI (RXF 393 renal) of the same molecule?
Answer: > 100 µM

Question: And the TGI (SF-539 CNS)?
Answer: > 100 µM

Question: What about the TGI (CAKI-1 renal) of the same molecule?
Answer: > 100 µM

Question: And the TGI (HCT-116 colon)?
Answer: > 100 µM

Question: And the TGI (HCT-15 colon)?
Answer: > 100 µM

Question: What about the TGI (EKVX NSCLC) of the same molecule?
Answer: > 100 µM

Question: What about the TGI (SK-MEL-5 melanoma) of the same molecule?
Answer: > 100 µM

Question: What about the TGI (A498 renal) of the same molecule?
Answer: > 100 µM

Question: And the TGI (U251 CNS)?
Answer: > 100 µM

Question: What about the TGI (DU-145 prostate) of the same molecule?
Answer: > 100 µM

Question: And the TGI (NCI-H460 lung)?
Answer: > 100 µM

Question: What about the TGI (786-0 renal) of the same molecule?
Answer: > 100 µM

Question: What about the TGI (MCF7 breast) of the same molecule?
Answer: > 100 µM

Question: And the TGI (T-47D breast)?
Answer: > 100 µM

Question: And the TGI (SW-620 colon)?
Answer: > 100 µM

Question: And the TGI (M14 melanoma)?
Answer: > 100 µM

Question: What about the TGI (MDA-MB-435) of the same molecule?
Answer: > 100 µM

Question: What about the TGI (HS 578T breast) of the same molecule?
Answer: 99.1 µM

Question: And the TGI (HT29 colon)?
Answer: > 100 µM

Question: What about the TGI (HOP-92 NSCLC) of the same molecule?
Answer: > 100 µM

Question: And the TGI (KM12 colon)?
Answer: > 100 µM

Question: And the TGI (OVCAR-5 ovarian)?
Answer: > 100 µM

Question: What about the TGI (NCI/ADR-RES ovarian) of the same molecule?
Answer: > 100 µM

Question: And the TGI (NCI-H226 lung)?
Answer: > 100 µM

Question: What about the TGI (SNB-19 CNS) of the same molecule?
Answer: 97.2 µM

Question: And the TGI (UO-31 renal)?
Answer: > 100 µM

Question: What about the TGI (SN12C renal) of the same molecule?
Answer: > 100 µM

Question: And the TGI (NCI-H23 lung)?
Answer: > 100 µM

Question: What about the TGI (MDA-N) of the same molecule?
Answer: > 100 µM

Question: And the TGI (TK-10 renal)?
Answer: > 100 µM

Question: What about the TGI (PC-3 prostate) of the same molecule?
Answer: > 100 µM

Question: And the TGI (MDA-MB-231 breast)?
Answer: > 100 µM

Question: What about the TGI (MOLT-4 leukemia) of the same molecule?
Answer: > 100 µM
